Results published in US10357481B2 (MERCK SHARP & DOHME CORP., priority 2015, dated 2019).

Each compound was assayed against T1, human PDE2A1 (Homo sapiens, UniProt O00408) (assay: IMAP FP PDE selectivity panel, human PDE2A1). Conditions: Lab B; read-out: Human PDE2 Ki (nM) Lab B.
T1 construct: GST; purchased BPS Bioscience (San Diego, Calif.) 60020; host or cells: insect cells
Assay type: biochemical
Method in brief: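 IMAP FP read-out, run at room temperature in parallel with PDE1–11: enzyme at 20% substrate conversion, 50 nM FAM-cAMP containing 1000 nM cGMP, Tris pH 7.2/MgCl2/DTT buffer. Compounds as ten 3-fold dilutions. Reaction 60 min, stopped with binding reagent for 1 h before polarization measurement.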

T1 sequence (O00408 1-920 isoform O00408-2): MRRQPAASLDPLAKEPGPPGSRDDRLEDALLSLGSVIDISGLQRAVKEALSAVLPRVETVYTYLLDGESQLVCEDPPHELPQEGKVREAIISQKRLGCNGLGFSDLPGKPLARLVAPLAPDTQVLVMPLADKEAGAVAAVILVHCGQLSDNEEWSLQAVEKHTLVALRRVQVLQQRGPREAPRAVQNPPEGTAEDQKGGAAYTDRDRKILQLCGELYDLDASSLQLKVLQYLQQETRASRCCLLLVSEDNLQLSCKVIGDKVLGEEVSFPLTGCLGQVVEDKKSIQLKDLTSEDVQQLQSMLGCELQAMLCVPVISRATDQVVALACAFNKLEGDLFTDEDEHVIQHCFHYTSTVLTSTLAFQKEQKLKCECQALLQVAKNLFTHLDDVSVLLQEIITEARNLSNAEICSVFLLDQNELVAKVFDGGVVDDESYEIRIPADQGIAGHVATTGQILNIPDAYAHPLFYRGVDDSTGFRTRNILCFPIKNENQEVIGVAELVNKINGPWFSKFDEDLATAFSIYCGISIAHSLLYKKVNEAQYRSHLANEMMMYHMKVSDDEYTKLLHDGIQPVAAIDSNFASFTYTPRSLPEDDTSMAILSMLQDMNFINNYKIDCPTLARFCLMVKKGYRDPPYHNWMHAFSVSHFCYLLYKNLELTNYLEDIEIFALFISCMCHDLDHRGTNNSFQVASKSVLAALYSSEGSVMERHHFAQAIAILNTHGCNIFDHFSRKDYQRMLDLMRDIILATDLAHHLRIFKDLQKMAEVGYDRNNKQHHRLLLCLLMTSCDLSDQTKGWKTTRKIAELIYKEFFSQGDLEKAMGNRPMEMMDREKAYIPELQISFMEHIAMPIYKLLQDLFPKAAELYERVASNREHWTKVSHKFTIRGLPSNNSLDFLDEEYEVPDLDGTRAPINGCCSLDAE

Compound | Ki [nM]
Cc1cc(N[C@@H](c2ccc(SC(F)(F)F)c(F)c2)C2CC2)n2ncnc2n1 [Example 41, N-[(R)-Cyclopropyl{3-fluoro-4-[(trifluoromethyl)sulfanyl]phenyl}methyl]-5-methyl[1,2,4]triazolo[1,5-a] pyrimidin-7-amine] | 19
Cc1cc(N[C@@H](c2ccc(C3CC3)cc2)C2CC2)n2ncnc2n1 [Example 42, N-[(R)-Cyclopropyl(4-cyclopropylphenyl)methyl]-5-methyl[1,2,4]triazolo[1,5-a] pyrimidin-7-amine] | 20
Cc1cc(N[C@@H](c2ccc(C(F)(F)F)c(F)c2)C2(C)CC2)n2ncnc2n1 [Example 43, N-[(R)-[3-Fluoro-4-(trifluoromethyl)phenyl](1-methylcyclopropyl)methyl]-5-methyl[1,2,4]triazolo[1,5-a] pyrimidin-7-amine] | 23
Cc1cc(N[C@@H](c2ccc(S(F)(F)(F)(F)F)cc2)C2(C)CC2)n2ncnc2n1 [Example 44, 5-Methyl-N-{(R)-(1-methylcyclopropyl)[4-(pentafluoro-λ^6-sulfanyl)phenyl]methyl} [1,2,4]triazolo[1,5-a]pyrimidin-7-amine] | 18
Cc1cc(NC(C)(C)c2ccc(OC(F)(F)F)c(F)c2)n2ncnc2n1 [Example 45, N-{1-[3-Fluoro-4-(trifluoromethoxy)phenyl]-1-methylethyl}-5-methyl[1,2,4]triazolo[1,5-a]pyrimidin-7-amine] | 207
Cc1cc(NC(C)(C)c2ccc(C(F)(F)F)c(F)c2)n2ncnc2n1 [Example 46, N-{1-[3-Fluoro-4-(trifluoromethyl)phenyl]-1-methylethyl}-5-methyl [1,2,4]triazolo[1,5-a]pyrimidin-7-amine] | 48
Cc1cc(NC(C)(C)c2ccc(C(F)(F)F)cc2Cl)n2ncnc2n1 [Example 47, N-{1-[2-Chloro-4-(trifluoromethyl)phenyl]-1-methylethyl}-5-methyl [1,2,4]triazolo[1,5-a]pyrimidin-7-amine] | 161
COc1cc(C(F)(F)F)ccc1C(C)(C)Nc1cc(C)nc2ncnn12 [Example 48, N-{1-[2-Methoxy-4-(trifluoromethyl)phenyl]-1-methylethyl}-5-methyl [1,2,4]triazolo[1,5-a]pyrimidin-7-amine] | 474
Cc1cc(NC(C)(C)c2ccc(OC(F)(F)F)cc2)n2ncnc2n1 [Example 49, 5-Methyl-N-{1-methyl-1-[4-(trifluoromethoxy)phenyl]ethyl} [1,2,4]triazolo[1,5-a]pyrimidin-7-amine] | 301
Cc1cc(NC(C)(C)c2ccc(SC(F)(F)F)c(F)c2)n2ncnc2n1 [Example 50, N-(1-{3-Fluoro-4-[(trifluoromethyl)sulfanyl]phenyl}-1-methylethyl)-5-methyl[1,2,4]triazolo[1,5-a] pyrimidin-7-amine] | 182
Cc1cc(NC(C)(C)c2ccc(OC(F)(F)F)cc2F)n2ncnc2n1 [Example 51, N-{1-[2-Fluoro-4-(trifluoromethoxy)phenyl]-1-methylethyl}-5-methyl [1,2,4]triazolo[1,5-a]pyrimidin-7-amine] | 206
Cc1cc(NC(C)(C)c2ccc(C(F)(F)F)cc2F)n2ncnc2n1 [Example 52, N-{1-[2-Fluoro-4-(trifluoromethyl)phenyl]-1-methylethyl}-5-methyl [1,2,4]triazolo[1,5-a]pyrimidin-7-amine] | 78
Cc1cc(NC(C)(C)c2ccc(C(F)(F)F)cc2)n2ncnc2n1 [Example 53, 5-Methyl-N-{1-methyl-1-[4-(trifluoromethyl)phenyl]ethyl} [1,2,4]triazolo[1,5-a]pyrimidin-7-amine] | 99
Cc1cc(NC(C)(C)c2ccc(C(F)(F)F)cc2C)n2ncnc2n1 [Example 54, 5-Methyl-N-{1-methyl-1-[2-methyl-4-(trifluoromethyl)phenyl]ethyl}[1,2,4]triazolo[1,5-a] pyrimidin-7-amine] | 342
Cc1cc(NC(C)(C)c2ccc(SC(F)(F)F)cc2)n2ncnc2n1 [Example 55, 5-Methyl-N-(1-methyl-1-{4-[(trifluoromethyl)sulfanyl]phenyl}ethyl)[1,2,4]triazolo[1,5-a] pyrimidin-7-amine] | 211
Cc1cc(NC2(c3ccc(S(F)(F)(F)(F)F)cc3)CC2)n2ncnc2n1 [Example 58, 5-Methyl-N-{1-[4-(pentafluoro-λ^6-sulfanyl)phenyl]cyclopropyl}[1,2,4] triazolo[1,5-a]pyrimidin-7-amine] | 52
Cc1cc(NC2(c3ccc(SC(F)(F)F)cc3)CC2)n2ncnc2n1 [Example 59, 5-Methyl-N-(1-{4-[(trifluoromethyl)sulfanyl]phenyl}cyclopropyl)[1,2,4]triazolo [1,5-a]pyrimidin-7-amine] | 72
Cc1cc(NC2(c3ccc(OC(F)(F)F)c(F)c3)CC2)n2ncnc2n1 [Example 60, N-{1-[3-Fluoro-4-(trifluoromethoxy)phenyl]cyclopropyl}5-methyl-[1,2,4]triazolo[1,5-a]pyrimidin-7-amine] | 32

Compound | Ki [nM]
Cc1cc(NC2(c3ccc(C(C)(C)C)cc3)CC2)n2ncnc2n1 [Example 61, N-{1-[4-(tert-Butyl)phenyl]cyclopropyl}5-methyl-[1,2,4]triazolo[1,5-a]pyrimidin-7-amine] | 81
Cc1cc(NC2(c3ccc(C(F)(F)F)cc3F)CC2)n2ncnc2n1 [Example 62, N-{1-[2-Fluoro-4-(trifluoromethyl)phenyl]cyclopropyl}5-methyl-[1,2,4]triazolo[1,5-a]pyrimidin-7-amine] | 162
Cc1cc(NC2(c3ccc(SC(F)(F)F)c(F)c3)CC2)n2ncnc2n1 [Example 63, N-(1-{3-Fluoro-4-[(trifluoromethyl)sulfanyl]phenyl}cyclopropyl)-5-methyl[1,2,4]triazolo[1,5-a] pyrimidin-7-amine] | 33
Cc1cc(NC2(c3ccc(C(F)(F)F)cc3)CCC2)n2ncnc2n1 [Example 64, 5-Methyl-N-{1-[4-(trifluoromethyl)phenyl]cyclobutyl}[1,2,4]triazolo [1,5-a]pyrimidin-7-amine] | 77
Cc1cc(NC2(c3ccc(SC(F)(F)F)cc3)CCC2)n2ncnc2n1 [Example 65, 5-Methyl-N-(1-{4-[(trifluoromethyl)sulfanyl]phenyl}cyclobutyl)[1,2,4] triazolo[1,5-a]pyrimidin-7-amine] | 75
Cc1cc(NC2(c3ccc(SC(F)(F)F)c(F)c3)CCC2)n2ncnc2n1 [Example 66, N-(1-{3-Fluoro-4-[(trifluoromethyl)sulfanyl]phenyl}cyclobutyl)-5-methyl[1,2,4]triazolo[1,5-a] pyrimidin-7-amine] | 108
Cc1cc(NC2(c3ccc(C(F)(F)F)cc3)CCCC2)n2ncnc2n1 [Example 67, 5-Methyl-N-{1-[4-(trifluoromethyl)phenyl]cyclopentyl}[1,2,4]triazolo [1,5-a]pyrimidin-7-amine] | 367
Fc1cc(C2(Nc3cc(C4CC4)nc4ncnn34)CC2)ccc1C(F)(F)F [Example 70, 5-Cyclopropyl-N-{1-[3-fluoro-4-(trifluoromethyl)phenyl]cyclopropyl}[1,2,4]triazolo[1,5-a]pyrimidin-7-amine] | 3.7
Fc1cc(C2(Nc3cc(C4CC4)nc4ncnn34)CC2)ccc1OC(F)(F)F [Example 71, 5-Cyclopropyl-N-{1-[3-fluoro-4-(trifluoromethoxy)phenyl]cyclo-propyl}[1,2,4]triazolo[1,5-a]pyrimidin-7-amine] | 25
FS(F)(F)(F)(F)c1ccc(C2(Nc3cc(C4CC4)nc4ncnn34)CC2)cc1 [Example 72, 5-Cyclopropyl-N-{1-[4-(pentafluoro-λ^6-sulfanyl)phenyl]cyclopropyl}[1,2,4] triazolo[1,5-a]pyrimidin-7-amine] | 26
CC(C)(C)c1cc(NC2(c3ccc(C(F)(F)F)c(F)c3)CC2)n2ncnc2n1 [Example 73] | 72
Fc1cc(C2(Nc3cc(C(F)(F)C(F)(F)F)nc4ncnn34)CC2)ccc1C(F)(F)F [Example 74, N-{1-[3-Fluoro-4-(trifluoromethyl)phenyl]cyclopropyl}-5-(pentafluoroethyl) [1,2,4]triazolo[1,5-a]pyrimidin-7-amine] | 109
COCc1cc(NC2(c3ccc(C(F)(F)F)c(F)c3)CC2)n2ncnc2n1 [Example 75, N-{1-[3-Fluoro-4-(trifluoromethyl)phenyl]cyclopropyl}-5-(methoxymethyl) [1,2,4]triazolo[1,5-a]pyrimidin-7-amine] | 201
COCc1cc(N[C@@H](c2ccc(C(F)(F)F)c(F)c2)C(C)(C)C)n2ncnc2n1 [Example 76, N-{(1R)-1-[3-Fluoro-4-(trifluoromethyl)phenyl]-2,2-dimethylpropyl}-5-(methoxymethyl)[1,2,4]triazolo [1,5-a]pyrimidin-7-amine] | 969
COCc1cc(N[C@H](C)c2ccc(C(F)(F)F)c(F)c2)n2ncnc2n1 [Example 77, N-{(1R)-1-[3-Fluoro-4-(trifluoromethyl)phenyl]ethyl}-5-(methoxymethyl)[1,2,4]triazolo [1,5-a]pyrimidin-7-amine] | ~1180
OCc1cc(NC2(c3ccc(C(F)(F)F)c(F)c3)CC2)n2ncnc2n1 [Example 78, [7-({1-[3-Fluoro-4-(trifluoromethyl)phenyl]cyclopropyl}amino)[1,2,4]triazolo[1,5-a]pyrimidin-5-yl]methanol] | 92
CC(C)(C)[C@@H](Nc1cc(CO)nc2ncnn12)c1ccc(C(F)(F)F)c(F)c1 [Example 79, [7-({(1R)-1-[3-Fluoro-4-(trifluoromethyl)phenyl]-2,2-dimethylpropyl}amino)[1,2,4]triazolo[1,5-a]pyrimidin-5-yl]methanol] | 208
C[C@@H](Nc1cc(CO)nc2ncnn12)c1ccc(C(F)(F)F)c(F)c1 [Example 80, [7-({(1R)-1-[3-Fluoro-4-(trifluoromethyl)phenyl]ethyl}amino)[1,2,4]triazolo[1,5-a]pyrimidin-5-yl]methanol] | 387
